Assay results taken from paper PMC4051630, “A Comparison of Protein Kinases Inhibitor Screening Methods Using Both Enzymatic Activity and Binding Affinity Determination” (PLoS ONE, 2014).

Key:
Test in all cases: Differential Scanning Fluorimetry (DSF) Tm shift
Type in all cases: binding
SRC Catalytic Domain = SRC Catalytic Domain (Homo sapiens, UniProt P12931); parameters: For all of them, we expressed and purified the catalytic domain separately; His-tag; made in house; host or cells: Escherichia coli; conditions: 2 µM protein, 10 µM inhibitor, average of 3 experiments, each in duplicate
CHK2 Catalytic Domain = biological target: T1, CHK2 Catalytic Domain (Homo sapiens, UniProt O96017); conditions: 2 µM protein, 10 µM inhibitor, average of 3 experiments, each in duplicate
T1 construct: For all of them, we expressed and purified the catalytic domain separately; His-tag; made in house; host or cells: Escherichia coli

FAK2 Catalytic Domain = biological target: T2, FAK2 Catalytic Domain (Homo sapiens, UniProt Q14289); conditions: 2 µM protein, 10 µM inhibitor, average of 3 experiments, each in duplicate
T2 construct: For all of them, we expressed and purified the catalytic domain separately; His-tag; made in house; host or cells: Escherichia coli

STK3 Catalytic Domain = biological target: T3, STK3 Catalytic Domain (Homo sapiens, UniProt Q13188); conditions: 2 µM protein, 10 µM inhibitor, average of 3 experiments, each in duplicate
T3 construct: For all of them, we expressed and purified the catalytic domain separately; His-tag; made in house; host or cells: Escherichia coli
T3 sequence (Q13188 27-278 limits assumed): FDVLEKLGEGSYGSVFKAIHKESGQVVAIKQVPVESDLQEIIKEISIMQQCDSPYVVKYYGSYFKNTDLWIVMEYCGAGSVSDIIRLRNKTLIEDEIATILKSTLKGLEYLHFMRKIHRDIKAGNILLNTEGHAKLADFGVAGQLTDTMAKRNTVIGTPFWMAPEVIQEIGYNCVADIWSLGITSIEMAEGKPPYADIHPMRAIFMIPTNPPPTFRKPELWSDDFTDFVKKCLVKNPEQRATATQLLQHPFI

PAK4 Catalytic Domain = biological target: T4, PAK4 Catalytic Domain (Homo sapiens, UniProt O96013); conditions: 2 µM protein, 10 µM inhibitor, average of 3 experiments, each in duplicate
T4 construct: For all of them, we expressed and purified the catalytic domain separately; His-tag; made in house; host or cells: Escherichia coli

DMPK Catalytic Domain = biological target: T5, DMPK Catalytic Domain (Homo sapiens, UniProt Q09013); conditions: 2 µM protein, 10 µM inhibitor, average of 3 experiments, each in duplicate
T5 construct: For all of them, we expressed and purified the catalytic domain separately; His-tag; made in house; host or cells: Escherichia coli
T5 sequence (Q09013 71-339 limits assumed): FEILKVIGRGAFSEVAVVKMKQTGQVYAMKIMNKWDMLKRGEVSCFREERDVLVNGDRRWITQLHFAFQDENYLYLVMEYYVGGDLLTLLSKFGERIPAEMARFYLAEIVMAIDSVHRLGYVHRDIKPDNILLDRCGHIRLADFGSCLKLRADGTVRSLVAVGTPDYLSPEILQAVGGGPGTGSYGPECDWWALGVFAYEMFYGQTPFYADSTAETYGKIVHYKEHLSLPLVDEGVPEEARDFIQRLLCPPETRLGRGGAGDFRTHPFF

PAK7 Catalytic Domain = biological target: T6, PAK7 Catalytic Domain (Homo sapiens, UniProt Q9P286); conditions: 2 µM protein, 10 µM inhibitor, average of 3 experiments, each in duplicate
T6 construct: For all of them, we expressed and purified the catalytic domain separately; His-tag; made in house; host or cells: Escherichia coli

AKT3 Catalytic Domain = biological target: T7, AKT3 Catalytic Domain (Homo sapiens, UniProt Q9Y243); conditions: 2 µM protein, 10 µM inhibitor, average of 3 experiments, each in duplicate
T7 construct: AKT3 (Q9Y243); CD; His-tag; made in house; host or cells: Escherichia coli

[1] = biological target: SRC Catalytic Domain+SH2+SH3 (Homo sapiens, UniProt P12931); conditions: 2 µM protein, 10 µM inhibitor, average of 3 experiments, each in duplicate
[2] = biological target: T8, STK3 Catalytic domain+SARAH (Homo sapiens, UniProt Q13188); conditions: 2 µM protein, 10 µM inhibitor, average of 3 experiments, each in duplicate
T8 construct: for 8, we also made a longer version containing one or more additional domains; His-tag; made in house; host or cells: Escherichia coli
T8 sequence (Q13188 1-491): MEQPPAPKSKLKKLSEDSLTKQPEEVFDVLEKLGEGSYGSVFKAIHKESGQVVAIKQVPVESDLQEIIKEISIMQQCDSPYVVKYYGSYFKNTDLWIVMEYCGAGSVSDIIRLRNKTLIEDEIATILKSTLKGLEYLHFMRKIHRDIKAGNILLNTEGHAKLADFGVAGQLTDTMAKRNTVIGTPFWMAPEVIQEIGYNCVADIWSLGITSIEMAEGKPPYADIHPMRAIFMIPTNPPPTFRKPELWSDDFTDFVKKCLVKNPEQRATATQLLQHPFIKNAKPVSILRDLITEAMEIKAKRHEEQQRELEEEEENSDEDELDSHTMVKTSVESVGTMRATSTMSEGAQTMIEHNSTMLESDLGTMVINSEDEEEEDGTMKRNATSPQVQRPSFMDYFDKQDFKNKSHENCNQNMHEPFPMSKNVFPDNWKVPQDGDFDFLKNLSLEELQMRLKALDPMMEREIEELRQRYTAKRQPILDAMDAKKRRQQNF

FES Catalytic Domain+SH2 = biological target: T9, FES Catalytic Domain+SH2 (Homo sapiens, UniProt P07332); conditions: 2 µM protein, 10 µM inhibitor, average of 3 experiments, each in duplicate
T9 construct: for 8, we also made a longer version containing one or more additional domains; His-tag; made in house; host or cells: Escherichia coli

FES Catalytic Domain = biological target: T10, FES Catalytic Domain (Homo sapiens, UniProt P07332); conditions: 2 µM protein, 10 µM inhibitor, average of 3 experiments, each in duplicate
T10 construct: For all of them, we expressed and purified the catalytic domain separately; His-tag; made in house; host or cells: Escherichia coli

[3] = biological target: T11, PAK4 Catalytic Domain+PBD (Homo sapiens, UniProt O96013); conditions: 2 µM protein, 10 µM inhibitor, average of 3 experiments, each in duplicate
T11 construct: for 8, we also made a longer version containing one or more additional domains; His-tag; made in house; host or cells: Escherichia coli

CDK2 + Cyclin E = biological target: T12, CDK2 + Cyclin E (Homo sapiens, UniProt P24941); conditions: CDK2 + Cyclin E; 2 µM protein, 10 µM inhibitor; average of 3 experiments, each in duplicate
T12 construct: CDK2 (P24941); 1–299; His-tag; made in house; host or cells: Escherichia coli

CDK2 + Cyclin A = biological target: T13, CDK2 + Cyclin A (Homo sapiens, UniProt P24941); conditions: CDK2 + Cyclin A; 2 µM protein, 10 µM inhibitor; average of 3 experiments, each in duplicate
T13 construct: CDK2 (P24941); 1–299; His-tag; made in house; host or cells: Escherichia coli

Chain of SRC Catalytic Domain (P12931 270-523 limits assumed): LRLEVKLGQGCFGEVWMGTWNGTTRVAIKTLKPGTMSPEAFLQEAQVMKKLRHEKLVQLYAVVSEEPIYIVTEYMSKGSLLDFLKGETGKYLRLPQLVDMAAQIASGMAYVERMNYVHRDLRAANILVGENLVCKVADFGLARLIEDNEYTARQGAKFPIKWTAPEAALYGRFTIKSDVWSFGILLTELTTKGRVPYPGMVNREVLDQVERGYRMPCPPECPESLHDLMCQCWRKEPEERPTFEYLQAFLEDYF
T1 sequence (O96017 220-486 limits assumed): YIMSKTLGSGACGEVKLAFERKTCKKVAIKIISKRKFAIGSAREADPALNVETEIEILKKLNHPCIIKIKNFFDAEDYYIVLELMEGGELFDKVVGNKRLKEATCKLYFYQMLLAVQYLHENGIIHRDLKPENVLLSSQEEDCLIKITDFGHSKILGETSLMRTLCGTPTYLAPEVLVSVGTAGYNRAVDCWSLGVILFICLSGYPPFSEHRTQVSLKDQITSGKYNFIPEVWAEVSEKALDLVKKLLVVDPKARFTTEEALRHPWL
T9 sequence (P07332 448-822 limits assumed): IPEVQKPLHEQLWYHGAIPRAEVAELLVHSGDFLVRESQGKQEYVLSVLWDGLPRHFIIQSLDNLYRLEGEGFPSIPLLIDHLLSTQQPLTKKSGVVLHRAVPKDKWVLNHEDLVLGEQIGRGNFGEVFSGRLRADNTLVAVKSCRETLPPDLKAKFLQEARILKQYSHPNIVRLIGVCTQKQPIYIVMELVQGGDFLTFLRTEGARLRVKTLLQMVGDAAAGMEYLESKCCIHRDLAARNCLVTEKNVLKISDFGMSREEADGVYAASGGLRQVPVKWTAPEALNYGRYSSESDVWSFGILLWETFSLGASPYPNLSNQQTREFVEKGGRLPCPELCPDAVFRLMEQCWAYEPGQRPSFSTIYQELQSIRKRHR
T4 sequence (O96013 321-572 limits assumed): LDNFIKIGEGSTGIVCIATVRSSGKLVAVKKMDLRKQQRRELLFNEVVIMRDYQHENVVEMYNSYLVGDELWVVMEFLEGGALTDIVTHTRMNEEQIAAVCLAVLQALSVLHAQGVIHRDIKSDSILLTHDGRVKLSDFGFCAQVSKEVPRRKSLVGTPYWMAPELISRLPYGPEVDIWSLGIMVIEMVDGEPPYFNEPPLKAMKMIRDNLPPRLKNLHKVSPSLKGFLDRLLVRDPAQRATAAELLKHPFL
T7 sequence (Q9Y243 122-479): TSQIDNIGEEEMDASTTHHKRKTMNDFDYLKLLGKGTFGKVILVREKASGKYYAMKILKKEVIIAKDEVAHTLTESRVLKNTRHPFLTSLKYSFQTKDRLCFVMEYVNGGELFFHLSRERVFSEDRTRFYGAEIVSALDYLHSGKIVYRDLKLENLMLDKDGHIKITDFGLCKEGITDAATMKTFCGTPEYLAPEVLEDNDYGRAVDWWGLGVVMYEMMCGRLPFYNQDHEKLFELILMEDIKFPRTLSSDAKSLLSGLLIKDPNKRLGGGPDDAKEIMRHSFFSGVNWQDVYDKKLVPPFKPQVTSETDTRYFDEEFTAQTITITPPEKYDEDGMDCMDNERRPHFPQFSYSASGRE
T10 sequence (P07332 561-822 limits assumed): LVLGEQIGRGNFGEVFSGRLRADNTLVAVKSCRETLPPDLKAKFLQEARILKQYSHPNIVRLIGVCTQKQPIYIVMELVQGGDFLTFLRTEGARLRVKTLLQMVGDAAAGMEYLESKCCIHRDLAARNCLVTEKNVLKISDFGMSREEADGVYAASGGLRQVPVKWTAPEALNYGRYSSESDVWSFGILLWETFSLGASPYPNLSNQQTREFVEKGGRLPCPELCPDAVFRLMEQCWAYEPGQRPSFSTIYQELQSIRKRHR
Chain of SRC Catalytic Domain+SH2+SH3 (P12931 84-523 limits assumed): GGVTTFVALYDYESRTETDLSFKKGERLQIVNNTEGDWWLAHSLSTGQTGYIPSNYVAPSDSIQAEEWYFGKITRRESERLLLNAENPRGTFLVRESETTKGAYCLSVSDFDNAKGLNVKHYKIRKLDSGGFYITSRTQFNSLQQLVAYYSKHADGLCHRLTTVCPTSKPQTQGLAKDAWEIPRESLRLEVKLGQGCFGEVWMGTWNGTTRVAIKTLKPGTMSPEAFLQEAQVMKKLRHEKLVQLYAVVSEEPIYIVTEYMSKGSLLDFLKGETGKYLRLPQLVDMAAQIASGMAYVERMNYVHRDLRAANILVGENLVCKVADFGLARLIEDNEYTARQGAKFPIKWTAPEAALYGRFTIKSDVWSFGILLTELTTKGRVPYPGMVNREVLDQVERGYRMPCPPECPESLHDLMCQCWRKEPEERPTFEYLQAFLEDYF
T2 sequence (Q14289 425-683 limits assumed): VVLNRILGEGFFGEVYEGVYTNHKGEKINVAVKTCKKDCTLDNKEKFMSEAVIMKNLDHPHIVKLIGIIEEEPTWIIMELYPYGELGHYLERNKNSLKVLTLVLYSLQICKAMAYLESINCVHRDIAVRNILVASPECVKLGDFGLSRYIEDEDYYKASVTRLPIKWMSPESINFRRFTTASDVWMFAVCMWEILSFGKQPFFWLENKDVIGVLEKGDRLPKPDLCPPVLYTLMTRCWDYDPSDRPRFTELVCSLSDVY
T11 sequence (O96013 whole entry, the tested form may be a part): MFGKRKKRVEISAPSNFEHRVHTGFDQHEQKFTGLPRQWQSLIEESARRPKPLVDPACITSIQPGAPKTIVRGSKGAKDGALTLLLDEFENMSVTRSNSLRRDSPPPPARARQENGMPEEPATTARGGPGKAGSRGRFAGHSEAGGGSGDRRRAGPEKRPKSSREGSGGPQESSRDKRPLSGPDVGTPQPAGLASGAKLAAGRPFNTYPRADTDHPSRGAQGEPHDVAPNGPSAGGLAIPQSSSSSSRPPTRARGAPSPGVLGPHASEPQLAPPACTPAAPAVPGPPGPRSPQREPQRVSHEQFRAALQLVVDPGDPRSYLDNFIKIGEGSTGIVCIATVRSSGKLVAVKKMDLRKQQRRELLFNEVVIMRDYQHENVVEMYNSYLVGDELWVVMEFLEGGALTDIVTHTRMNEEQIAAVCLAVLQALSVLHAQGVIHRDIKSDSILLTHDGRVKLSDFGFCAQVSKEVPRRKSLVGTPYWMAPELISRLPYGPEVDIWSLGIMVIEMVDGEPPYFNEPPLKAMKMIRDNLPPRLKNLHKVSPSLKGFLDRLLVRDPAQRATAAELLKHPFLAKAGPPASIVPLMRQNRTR
T6 sequence (Q9P286 449-700 limits assumed): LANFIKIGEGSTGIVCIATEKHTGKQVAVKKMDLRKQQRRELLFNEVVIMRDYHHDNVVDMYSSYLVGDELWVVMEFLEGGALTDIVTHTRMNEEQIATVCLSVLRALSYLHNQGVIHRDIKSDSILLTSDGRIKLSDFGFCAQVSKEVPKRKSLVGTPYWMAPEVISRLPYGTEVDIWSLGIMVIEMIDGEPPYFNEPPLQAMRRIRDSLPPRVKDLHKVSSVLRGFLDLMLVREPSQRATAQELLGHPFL

Row | Melting temperature (Tm) shift (SRC Catalytic Domain) [degrees Celcius] | Melting temperature (Tm) shift (CHK2 Catalytic Domain) [degrees Celcius] | Melting temperature (Tm) shift (FAK2 Catalytic Domain) [degrees Celcius] | Melting temperature (Tm) shift (STK3 Catalytic Domain) [degrees Celcius] | Melting temperature (Tm) shift (PAK4 Catalytic Domain) [degrees Celcius] | Melting temperature (Tm) shift (DMPK Catalytic Domain) [degrees Celcius] | Melting temperature (Tm) shift (PAK7 Catalytic Domain) [degrees Celcius] | Melting temperature (Tm) shift (AKT3 Catalytic Domain) [degrees Celcius] | Melting temperature (Tm) shift [1] [degrees Celcius] | Melting temperature (Tm) shift [2] [degrees Celcius] | Melting temperature (Tm) shift (FES Catalytic Domain+SH2) [degrees Celcius] | Melting temperature (Tm) shift (FES Catalytic Domain) [degrees Celcius] | Melting temperature (Tm) shift [3] [degrees Celcius] | Melting temperature (Tm) shift (CDK2 + Cyclin E) [degrees Celcius] | Melting temperature (Tm) shift (CDK2 + Cyclin A) [degrees Celcius] | Compound
1 | 0.1 | 2.0 | – | 0.3 | – | 1.6 | 0.0 | – | – | 1.7 | – | 0.4 | – | 0.0 | 0.5 | O=C1NC(=O)C(c2cn(CCCn3ccnc3)c3ccccc23)=C1Nc1ccccc1 [PKCb Inhibitor]
2 | 0.5 | 10.6 | 0.4 | 0.3 | 0.0 | 0.4 | 0.0 | – | 0.7 | 0.6 | 0.1 | 0.1 | 0.1 | – | 0.1 | COc1cc2ncnc(Nc3ccc(Cl)cc3Cl)c2cc1OC [Ste11 MAPKKK Activation Inhibitor]
3 | 0.7 | 7.0 | 0.3 | 0.9 | – | 0.1 | – | 0.1 | 0.4 | 0.4 | 0.2 | 0.1 | 0.1 | – | 0.1 | COc1cc2ncnc(Nc3ccc(NC(=O)c4ccccc4)cc3)c2cc1OC [Aurora Kinase Inhibitor II]
4 | 2.1 | 3.0 | 0.6 | 0.3 | – | 0.7 | 0.0 | – | 1.6 | 0.1 | 0.1 | 0.1 | – | 0.2 | 0.0 | COc1cc2ncnc(Nc3ccc(Oc4ccccc4)cc3)c2cc1OC [Src Kinase Inhibitor I]
5 | 1.3 | 1.9 | 0.8 | 3.7 | 3.0 | 0.5 | 2.0 | 0.2 | 1.6 | 0.9 | 0.2 | 1.0 | 0.8 | – | 0.3 | Cc1cc(Nc2nc(-c3ccccc3)nc3ccccc23)n[nH]1 [GSK-3 Inhibitor XIII]

More lines, now with the values behind:

Row | Compound | Melting temperature (Tm) shift (SRC Catalytic Domain) [degrees Celcius] | Melting temperature (Tm) shift (CHK2 Catalytic Domain) [degrees Celcius] | Melting temperature (Tm) shift (FAK2 Catalytic Domain) [degrees Celcius] | Melting temperature (Tm) shift (STK3 Catalytic Domain) [degrees Celcius] | Melting temperature (Tm) shift (PAK4 Catalytic Domain) [degrees Celcius] | Melting temperature (Tm) shift (DMPK Catalytic Domain) [degrees Celcius] | Melting temperature (Tm) shift (PAK7 Catalytic Domain) [degrees Celcius] | Melting temperature (Tm) shift (AKT3 Catalytic Domain) [degrees Celcius] | Melting temperature (Tm) shift [1] [degrees Celcius] | Melting temperature (Tm) shift [2] [degrees Celcius] | Melting temperature (Tm) shift (FES Catalytic Domain+SH2) [degrees Celcius] | Melting temperature (Tm) shift (FES Catalytic Domain) [degrees Celcius] | Melting temperature (Tm) shift [3] [degrees Celcius] | Melting temperature (Tm) shift (CDK2 + Cyclin E) [degrees Celcius] | Melting temperature (Tm) shift (CDK2 + Cyclin A) [degrees Celcius]
6 | CN[C@@H]1C[C@H]2O[C@@](C)([C@@H]1OC)n1c3ccccc3c3c4c(c5c6ccccc6n2c5c31)C(=O)N[C@@H]4O [UCN-01] | 0.4 | 1.7 | 5.9 | 7.6 | 6.2 | 5.9 | 7.4 | 3.2 | 1.2 | 12.7 | 1.3 | 5.2 | 6.8 | – | –
7 | O=C(Nc1cccc(Nc2nccc(Nc3cccc(C(F)(F)F)c3)n2)c1)C1CC1 [Aurora Kinase Inhibitor III] | 0.2 | 0.4 | 0.2 | 0.1 | 0.8 | 0.9 | 0.0 | 0.1 | 0.0 | 0.4 | 0.3 | 0.2 | 1.1 | – | 0.2
8 | CS(=O)(=O)O.Cn1cc(C2=C(c3cn(CCCSC(=N)N)c4ccccc34)C(=O)NC2=O)c2ccccc21 [Ro-31-8220] | 0.2 | 6.6 | 0.5 | 1.8 | 1.5 | 4.8 | 0.9 | 1.6 | 0.0 | 2.9 | 0.8 | 1.0 | 1.6 | – | –
9 | O=C1NC(=O)C(=Cc2ccc(-c3ccc(F)cc3O)o2)S1 [PI 3-Kγ/CKII Inhibitor] | 0.0 | 2.5 | 0.1 | 0.3 | 0.9 | 0.3 | – | – | 0.1 | 0.5 | 0.5 | – | 1.3 | 0.2 | 0.2
